This is an account of results in patent US20200148646A1, “6-S[…] 7-S[…] ANALOGS AND THE USE THEREOF” (Purdue Pharma, L.P., priority 2013, published 2020).

In assay [1] the target is T1, human κ opioid receptor (Homo sapiens, UniProt P41145). In words: κ-opioid receptor [35S]GTPγS functional assay, HEK-293 or CHO cells. The assay is classed as biochemical. On the set-up: expressed in transfected cells. To be noted: for Emax: HEK-293 or CHO cells, relative to U69,593. The procedure: Membranes from recombinant HEK-293 cells, CHO or U-2 OS cells expressing the recombinant human K opioid receptor (K) were prepared by lysing cells in ice cold hypotonic buffer (2.5 mM MgCl2, 50 mM HEPES, pH 7.4) (10 mL/10 cm dish) followed by homogenization with a tissue grinder/Teflon pestle. Functional [^35S]GTPγS binding assays were conducted as follows. K opioid receptor membrane solution was prepared by sequentially adding final concentrations of 0.026 μg/μl κ membrane protein (in-house), 10 μg/mL saponin, 3 μM GDP and 0.20 nM [^35S]GTPγS to binding buffer (100 mM NaCl, 10 mM MgCl2, 20 mM HEPES, pH 7.4) on ice. The prepared membrane solution (190 μl/well) was transferred to 96-shallow well polypropylene plates containing 10 μl of 20× concentrated stock solutions of agonist prepared in DMSO. Plates were incubated for 30 min at a temperature of about 25° C. with shaking. Reactions were terminated by rapid filtration onto 96-well Unifilter GF/B filter plates (Perkin Elmer, Shelton, Conn.) using a 96-well tissue harvester (Packard) and followed by three filtration washes with 200 μl ice-cold binding buffer (10 mM NaH2PO4, 10 mM Na2HPO4, pH 7.4). Filter plates were subsequently dried at 50° C. for 2-3 hours. Fifty μl/well scintillation cocktail (Perkin Elmer, Shelton, Conn.) was added and plates were counted in a Packard Top-Count for 1 min/well.
T1 sequence (P41145 whole entry): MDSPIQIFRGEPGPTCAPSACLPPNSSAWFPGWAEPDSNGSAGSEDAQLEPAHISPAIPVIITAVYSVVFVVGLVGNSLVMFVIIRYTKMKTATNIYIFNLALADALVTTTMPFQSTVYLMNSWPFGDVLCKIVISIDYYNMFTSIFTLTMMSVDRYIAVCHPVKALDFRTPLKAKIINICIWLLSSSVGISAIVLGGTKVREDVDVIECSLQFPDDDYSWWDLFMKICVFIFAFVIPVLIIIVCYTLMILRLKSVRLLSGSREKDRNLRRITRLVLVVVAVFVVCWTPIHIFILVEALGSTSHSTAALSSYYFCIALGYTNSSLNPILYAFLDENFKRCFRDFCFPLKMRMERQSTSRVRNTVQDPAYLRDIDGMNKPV
κ GTP EC50 is the concentration of a compound providing 50% of the maximal response for the compound at a κ receptor.
κ GTP Emax (%) is the maximal effect elicited by a compound relative to the effect elicited by U69,593.
In TABLE 2, activity response of certain Compounds of the Invention at the μ- and κ-opioid receptors using HEK-293 or CHO cells was determined as described above for functional assays.

The target in assay [2] is T1, human κ opioid receptor. In words: κ-opioid receptor radioligand ([3H]-U69,593) dose-displacement binding assay, HEK-293 or CHO cells. On the set-up: expressed in transfected cells; host or cells: HEK-293 cells (in-house prep). As to the method: Membranes from recombinant HEK-293 cells expressing the human K opioid receptor (cloned in house) were prepared by lysing cells in ice cold hypotonic buffer (2.5 mM MgCl2, 50 mM HEPES, pH 7.4) (10 mL/10 cm dish) followed by homogenization with a tissue grinder/Teflon pestle. Membranes were collected by centrifugation at 30,000×g for 15 min at 4° C. and pellets were resuspended in hypotonic buffer to a final concentration of 1-3 mg/mL. Protein concentrations were determined using the BioRad protein assay reagent with bovine serum albumen as standard. Aliquots of κ receptor membranes were stored at −80° C.
Radioligand dose displacement assays used 0.4 nM [^3H]-U69,593 (GE Healthcare, Piscataway, N.J.; 40 Ci/mmole) with 15 μg membrane protein (recombinant K opioid receptor expressed in HEK 293 cells; in-house prep) in a final volume of 200 μl binding buffer (5% DMSO, 50 mM Trizma base, pH 7.4). Non-specific binding was determined in the presence of 10 μM unlabeled naloxone or U69,593. All reactions were performed in 96-well polypropylene plates for 1 hr at a temperature of about 25° C. Binding reactions were terminated by rapid filtration onto 96-well Unifilter GF/C filter plates (Perkin Elmer, Shelton, Conn.) presoaked in 0.5% polyethylenimine (Sigma). Harvesting was performed using a 96-well tissue harvester (Perkin Elmer, Shelton, Conn.) followed by five filtration washes with 200 μl ice-cold binding buffer. Filter plates were subsequently dried at 50° C. for 1-2 hours. Fifty μl/well scintillation cocktail (Perkin Elmer, Shelton, Conn.) was added and plates were counted in a Packard Top-Count for 1 min/well.
(§1) In TABLE 1, binding affinity of certain Compounds of the Invention to the μ-, and κ-opioid receptors in HEK-293 or CHO cells was determined as described above.

Assay [3] concerns the target T2, μ-opioid receptor (Homo sapiens, UniProt P35372). In words: μ-opioid receptor [35S]GTPγS functional assay, U-2 OS cells. In kind it is biochemical. Further details: host or cells: U-2 OS cells. The following applies: for Emax: U2-OS cells, relative to DAMGO. In short, it runs like this:
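U-2 OS membranes expressing recombinant human μ-receptor (0.026 mg/mL) were incubated with compound, […], saponin and [35S]GTPγS 0.20 nM in HEPES/NaCl/MgCl2 buffer pH 7.4 for 30 min at about 25° C. Filter-bound radioactivity gave sigmoidal fits for EC50; Emax is relative to DAMGO.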

The target of assay [4] is T1, human κ opioid receptor. In words: κ-opioid receptor [35S]GTPγS functional assay, U-2 OS cells. On the set-up: expressed in transfected cells; host or cells: U-2 OS cells (in-house membranes). In kind it is biochemical. To be noted: for Emax: U2-OS cells, relative to U69,593. The procedure, abridged: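 Membranes from U-2 OS cells expressing human κ receptor (0.026 μg/μl protein) were incubated with agonist, 10 μg/mL saponin, 3 μM GDP and 0.20 nM [35S]GTPγS in pH 7.4 HEPES buffer for 30 min at about 25 °C. Bound radioactivity was measured after filtration. EC50 was taken at half-maximal response; Emax is relative to U69,593.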

For assay [5], the target named is T2, μ-opioid receptor. The assay is described as follows: μ-opioid receptor radioligand ([3H]-diprenorphine) dose-displacement binding assay, HEK-293 or CHO cells. As to the method:
Radioligand dose-displacement binding assays for μ-opioid receptors used 0.3 nM [^3H]-diprenorphine (Perkin Elmer, Shelton, Conn.), with […] membrane protein/well in a final volume of 500 μl binding buffer (10 mM MgCl2, 1 mM EDTA, 5% DMSO, 50 mM HEPES, pH 7.4). Reactions were carried out in the absence or presence of increasing concentrations of unlabeled naloxone. All reactions were conducted in 96-deep well polypropylene plates for 2 hr at room temperature. Binding reactions were terminated by rapid filtration onto 96-well Unifilter GF/C filter plates (Perkin Elmer, Shelton, Conn.), presoaked in 0.5% polyethylenimine using a 96-well tissue harvester (Perkin Elmer, Shelton, Conn.) followed by performing three filtration washes with 500 μl of ice-cold binding buffer. Filter plates were subsequently dried at 50° C. for 2-3 hours. BetaScint scintillation cocktail (Perkin Elmer, Shelton, Conn.) was added (50 l/well), and plates were counted using a Packard Top-Count for 1 min/well. The data were analyzed using the one-site competition curve fitting functions in GraphPad PRISM™ v. 3.0 or higher (San Diego, Calif.), or an in-house function for one-site competition curve-fitting.
as §1

Assay [6] deals with T2, μ-opioid receptor. In words: μ-opioid receptor [35S]GTPγS functional assay, HEK-293 or CHO cells. In kind it is biochemical. To be noted: for Emax: HEK-293 or CHO cells, relative to DAMGO. In short, it runs like this:
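Agonist-stimulated [35S]GTPγS binding to recombinant μ-receptor membranes (HEK-293 or CHO) with 0.20 nM [35S]GTPγS, […] and saponin, pH 7.4, 30 min at about 25 °C, then filtration and scintillation counting. EC50 from sigmoidal fits; Emax relative to DAMGO.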

T2 sequence (P35372 whole entry, species assumed): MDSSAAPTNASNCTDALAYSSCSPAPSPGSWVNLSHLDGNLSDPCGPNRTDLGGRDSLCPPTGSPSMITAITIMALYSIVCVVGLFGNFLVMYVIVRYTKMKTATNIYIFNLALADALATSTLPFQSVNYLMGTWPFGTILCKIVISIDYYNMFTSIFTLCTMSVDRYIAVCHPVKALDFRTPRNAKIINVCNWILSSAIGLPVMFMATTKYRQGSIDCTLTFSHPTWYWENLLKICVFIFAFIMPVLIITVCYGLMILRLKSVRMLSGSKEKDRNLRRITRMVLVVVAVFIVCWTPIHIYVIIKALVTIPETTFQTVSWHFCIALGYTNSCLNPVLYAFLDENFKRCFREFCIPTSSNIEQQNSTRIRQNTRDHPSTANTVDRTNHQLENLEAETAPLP

For `COc1ccc2c(c1)[C@]13CCN(CC4CC4)[C@H](C2)[C@]1(O)CC[C@@H](CC(=O)O)C3` [Compound 9, 2-((4bS,6R,8aS,9R)-11-(cyclopropylmethyl)-8a-hydroxy-3-methoxy-6,7,8,8a,9,10-hexahydro-5H-9,4b-(epiminoethano)phenanthren-6-yl)acetic acid], at human κ opioid receptor [1], the EC50 stood at 597 ± 163 nM. Moreover, the inhibitory constant (Ki) on human κ opioid receptor [2] is 597 ± 163 nM. On μ-opioid receptor [3], this compound returned an EC50 of 574 ± 87.2 nM and an Emax of 36.3 ± 0.88%.
`N=C(N)NCCCC(=O)N[C@@H]1CC[C@@]2(O)[C@H]3Cc4ccc(O)cc4[C@@]2(CCN3CC2CC2)C1` [Compound 22, N-((4bR,6R,8aS,9R)-11-(cyclopropylmethyl)-3,8a-dihydroxy-6,7,8,8a,9,10-hexahydro-5H-9,4b-(epiminoethano)phenanthren-6-yl)-4-guanidinobutanamide]: the values for the EC50 at human κ opioid receptor [4], on μ-opioid receptor [6] and on μ-opioid receptor [3] were 27.1 ± 4.18 nM, > 20000 nM and 247 ± 25.5 nM, respectively. In addition, the Emax is 107 ± 2.33% on human κ opioid receptor [4], 5 ± 1.53% on μ-opioid receptor [6] and 60 ± 5.51% at μ-opioid receptor [3]. The inhibitory constant (Ki) on μ-opioid receptor [5] stood at 251 ± 29.4 nM; at human κ opioid receptor [2], 1.85 ± 0.22 nM.
As for `N=C(N)Nc1ccc(N[C@@H]2CC[C@@]3(O)[C@H]4Cc5ccc(O)cc5[C@@]3(CCN4CC3CC3)C2)cc1` [Compound 24, 1-(4-(((4bR,6R,8aS,9R)-11-(cyclopropylmethyl)-3,8a-dihydroxy-6,7,8,8a,9,10-hexahydro-5H-9,4b-(epiminoethano)phenanthren-6-yl)amino)phenyl)guanidine], the EC50 on human κ opioid receptor [4] is 2.91 ± 0.18 nM; on μ-opioid receptor [6], > 20000 nM; at μ-opioid receptor [3], 8.14 ± 0.94 nM. For the same compound, the values for the maximal effect (Emax) on human κ opioid receptor [4], at μ-opioid receptor [6] and at μ-opioid receptor [3] were 104 ± 4.04%, 4.33 ± 1.45% and 55.3 ± 2.91%, respectively. Further, the Ki came out at 8.42 ± 2.88 nM at μ-opioid receptor [5] and 0.24 ± 0.021 nM on human κ opioid receptor [2].
For `CC(C)CN[C@@H]1C[C@@]2(O)[C@H]3Cc4ccc(O)cc4[C@@]2(CCN3CC2CC2)C[C@@H]1O` [Compound 34, (4bR,6S,7R,8aS,9R)-11-(cyclopropylmethyl)-7-(isobutylamino)-5,6,7,8,9,10-hexahydro-8aH-9,4b-(epiminoethano)phenanthrene-3,6,8a-triol], the EC50 on human κ opioid receptor [1] was 0.55 ± 0.23 nM; at human κ opioid receptor [4], 0.81 ± 0.12 nM; at μ-opioid receptor [6], > 20000 nM; on μ-opioid receptor [3], 3.84 ± 1.53 nM. The maximum response (Emax) at human κ opioid receptor [1] worked out at 32 ± 1.35%; at human κ opioid receptor [4], 71 ± 1.53%; at μ-opioid receptor [6] it was 1%; at μ-opioid receptor [3] it was 20.3 ± 1.76%.
For `CC(C)C(=O)N[C@H]1C[C@@]2(O)[C@H]3Cc4ccc(O)cc4[C@@]2(CCN3CC2CC2)CC1O` (stereo partly drawn) [Compound 50, N-((4bR,7S,8aS,9R)-11-(cyclopropylmethyl)-3,6,8a-trihydroxy-6,7,8,8a,9,10-hexahydro-5H-9,4b-(epiminoethano)phenanthren-7-yl)isobutyramide], the EC50 on human κ opioid receptor [1] is 29.2 ± 2.21 nM; on human κ opioid receptor [4], 47.3 ± 3.7 nM; at μ-opioid receptor [6], > 20000 nM; on μ-opioid receptor [3], 113 ± 60.8 nM. Further, the Emax at human κ opioid receptor [1] is 45.7 ± 2.19%; on human κ opioid receptor [4] it was 91.7 ± 1.33%; on μ-opioid receptor [6], 1%; at μ-opioid receptor [3], 12.8 ± 0.85%.
Turning to `CC(C)CCCC(=O)N[C@H]1C[C@@]2(O)[C@H]3Cc4ccc(O)cc4[C@@]2(CCN3CC2CC2)CC1O` (stereo partly drawn) [Compound 63, N-((4bR,7S,8aS,9R)-11-(cyclopropylmethyl)-3,6,8a-trihydroxy-6,7,8,8a,9,10-hexahydro-5H-9,4b-(epiminoethano)phenanthren-7-yl)-5-methylhexanamide], the EC50 at human κ opioid receptor [1] is 23 ± 4.32 nM; on human κ opioid receptor [4], 38.8 ± 7.82 nM; on μ-opioid receptor [6], 81.2 ± 8.25 nM; at μ-opioid receptor [3] it was 63.2 ± 8.31 nM. Also, the Emax on human κ opioid receptor [1] worked out at 21.2 ± 0.44%; on human κ opioid receptor [4], 84.3 ± 1.67%; at μ-opioid receptor [6], 23.3 ± 1.33%; at μ-opioid receptor [3], 58.7 ± 1.33%. In addition, at human κ opioid receptor [2], the Ki was 11.5 ± 0.97 nM.
